Results taken from the NIST ThermoML archive (doi:10.1016/j.jct.2015.07.005).
Values joined by “and” are separate entries in the source; they are usually repeats but may differ in a detail not shown here. Equal entries are not always repeated.

Details: Gas, Frequency=0.005 MHz, Spherical cavity resonance method

C [methane]
Details | speed of sound
280.01 K, 500.03 kPa | 434.02 m/s and 434.03 m/s
280.01 K, 500.04 kPa | 434.03 m/s
280.01 K, 500.18 kPa | 434.03 m/s
280.02 K, 500.03 kPa | 434.03 m/s and 434.03 m/s
280.02 K, 500.04 kPa | 434.03 m/s and 434.02 m/s and 434.03 m/s
280.02 K, 500.18 kPa | 434.03 m/s
280.02 K, 500.19 kPa | 434.03 m/s and 434.03 m/s and 434.03 m/s
293.27 K, 394.31 kPa | 443.98 m/s and 443.97 m/s and 443.97 m/s
293.27 K, 394.32 kPa | 443.97 m/s and 443.97 m/s and 443.97 m/s
293.28 K, 394.32 kPa | 443.97 m/s [middle of 6 runs]
293.28 K, 394.33 kPa | 443.98 m/s and 443.98 m/s and 443.97 m/s
293.28 K, 394.34 kPa | 443.98 m/s
293.28 K, 394.35 kPa | 443.98 m/s and 443.98 m/s
293.29 K, 394.36 kPa | 443.98 m/s and 443.97 m/s
319.52 K, 429.9 kPa | 462.06 m/s
319.53 K, 429.91 kPa | 462.06 m/s
319.55 K, 428.61 kPa | 461.97 m/s and 461.97 m/s
319.87 K, 471.86 kPa | 462.12 m/s
319.87 K, 471.87 kPa | 462.12 m/s
319.88 K, 471.88 kPa | 462.12 m/s
319.88 K, 471.91 kPa | 462.13 m/s
319.89 K, 471.91 kPa | 462.13 m/s and 462.13 m/s
319.89 K, 471.92 kPa | 462.13 m/s
319.89 K, 471.93 kPa | 462.12 m/s and 462.13 m/s
319.94 K, 430.41 kPa | 462.32 m/s
319.94 K, 430.42 kPa | 462.32 m/s
319.95 K, 429.13 kPa | 462.24 m/s
319.96 K, 429.13 kPa | 462.24 m/s
339.35 K, 456 kPa | 474.76 m/s and 474.76 m/s
339.88 K, 456.67 kPa | 475.08 m/s
339.89 K, 456.67 kPa | 475.08 m/s
359.27 K, 481.98 kPa | 486.94 m/s
359.28 K, 480.58 kPa | 486.84 m/s
359.28 K, 481.81 kPa | 486.76 m/s
359.28 K, 481.99 kPa | 486.94 m/s
359.29 K, 480.58 kPa | 486.85 m/s
359.85 K, 482.79 kPa | 487.31 m/s
359.86 K, 482.59 kPa | 487.15 m/s
359.86 K, 482.79 kPa | 487.31 m/s
359.87 K, 482.6 kPa | 487.15 m/s
360.03 K, 529.63 kPa | 487.35 m/s
360.03 K, 529.64 kPa | 487.35 m/s and 487.35 m/s
360.03 K, 529.66 kPa | 487.35 m/s
360.04 K, 529.66 kPa | 487.34 m/s and 487.34 m/s
360.04 K, 529.67 kPa | 487.33 m/s and 487.33 m/s
379.2 K, 507.87 kPa | 498.66 m/s and 498.66 m/s
379.78 K, 508.56 kPa | 498.97 m/s and 498.98 m/s
399.24 K, 533.63 kPa | 510.01 m/s and 510.02 m/s
399.82 K, 534.48 kPa | 510.39 m/s and 510.39 m/s
399.99 K, 471.94 kPa | 510.49 m/s and 510.5 m/s and 510.49 m/s
399.99 K, 471.95 kPa | 510.47 m/s and 510.48 m/s
399.99 K, 471.96 kPa | 510.47 m/s
399.99 K, 471.97 kPa | 510.47 m/s
399.99 K, 471.98 kPa | 510.47 m/s
400 K, 471.96 kPa | 510.46 m/s
419.54 K, 559.42 kPa | 521.02 m/s
419.55 K, 559.43 kPa | 521.03 m/s
419.56 K, 559.63 kPa | 521.2 m/s and 521.2 m/s
419.99 K, 560 kPa | 521.28 m/s
420 K, 560.01 kPa | 521.28 m/s and 521.29 m/s
420.02 K, 560.19 kPa | 521.47 m/s
420.02 K, 560.2 kPa | 521.46 m/s
439.94 K, 496.85 kPa | 532.03 m/s
439.94 K, 496.86 kPa | 532.02 m/s and 532.03 m/s
439.94 K, 496.87 kPa | 532.02 m/s
439.94 K, 496.88 kPa | 532.01 m/s [middle of 5 runs]
449.69 K, 597.89 kPa | 537.24 m/s
449.69 K, 597.9 kPa | 537.24 m/s [middle of 6 runs]
449.7 K, 597.88 kPa | 537.22 m/s
449.7 K, 597.89 kPa | 537.22 m/s and 537.23 m/s
449.7 K, 597.9 kPa | 537.23 m/s and 537.24 m/s and 537.23 m/s
449.71 K, 597.88 kPa | 537.22 m/s and 537.21 m/s
449.71 K, 597.89 kPa | 537.22 m/s [middle of 5 runs]
449.72 K, 597.88 kPa | 537.2 m/s
449.72 K, 597.89 kPa | 537.21 m/s [middle of 4 runs]
449.73 K, 597.86 kPa | 537.19 m/s
449.73 K, 597.87 kPa | 537.2 m/s and 537.19 m/s and 537.19 m/s
449.74 K, 597.86 kPa | 537.19 m/s
449.74 K, 597.87 kPa | 537.2 m/s and 537.2 m/s
449.77 K, 597.88 kPa | 537.2 m/s and 537.2 m/s
449.78 K, 597.9 kPa | 537.2 m/s
449.79 K, 597.9 kPa | 537.2 m/s
479.91 K, 495.54 kPa | 552.38 m/s
479.92 K, 495.51 kPa | 552.4 m/s and 552.39 m/s
479.92 K, 495.52 kPa | 552.4 m/s
479.92 K, 495.54 kPa | 552.39 m/s
479.92 K, 495.55 kPa | 552.39 m/s
479.92 K, 495.57 kPa | 552.38 m/s and 552.39 m/s
479.92 K, 539.8 kPa | 552.38 m/s and 552.39 m/s
479.92 K, 539.81 kPa | 552.39 m/s
